Several values for one entry are separate records, joined by “and”; a condition that tells them apart may be missing. Equal entries are not always repeated.
Tests used:
[1] = system: aged male macaques; assay: Observation of behavioral or physical side effects during the DL LTR study; type: in vivo; conditions: any dose given (1, 10, 100 mg/kg p.o. daily)
Experimental: (§1) The study was conducted using 6 aged male macaques (age approximately 22 years at onset of the study which is equivalent to approximately 66 human years) previously trained to performed certain memory tasks. Assessments of memory performance used the CANTAB system (the Cambridge Neuropsychological Test Automated Battery) and a new task.
(§2) All drugs were administered orally in marshmallow while the animal was in a specially designed testing cage. Vehicle was marshmallow alone.
(§3) Treatments were administered sequentially starting with treatment 1. Each treatment (dose of HT-0712 or vehicle) was administered once per day for 4 days before behavioral training began and then continued at 1 treatment (dose of HT-0712 or vehicle) per day, delivered four hours before testing, for the duration of the training period. When each individual animal reached performance criterion of at least 85% correct responses during a daily session, training and dosing ceased for seven days. Then, on post-criterion day 8, animals were tested again on the DL LTR task (retention testing).
Data from this non-responder were removed from the statistical analysis.

[2] = system: aged male macaques; assay: Discrimination Learning - Long Term Retrieval task (DL LTR); type: in vivo; conditions: for RT 1-14 (retention test trials 1 to 14), mean / RT 15-28 (retention test trials 15 to 28), mean / retention test, mean / RT overall / RT trials 1-14 / RT trials 15-28: day 8 post-criterion; for RT overall / RT trials 1-14 / RT trials 15-28: raw data of individual animals; for C value / Days to C: raw data of individual animals (Old-1, -2, -5, -7, -8, -9)
Experimental: as §1
In this task, animals are presented with 2 pairs of stimuli (e.g. 1 pair of shapes and 1 pair of lines) over the course of a daily test session. For each pair of stimuli, one stimulus is arbitrarily designated as the positive stimulus (i.e., touch of that stimulus is rewarded). Each pair of stimuli is presented 14 times during a daily session that consists of 28 trials. The pairs of stimuli (shapes or lines) are presented in a pseudo randomized fashion during each session. Animals have to touch the “positive” shape or line in order to receive a sugar pellet reward accompanied by a pleasant tone. Touching the alternative shape or line results in a negative tone, no sugar pellet and a time out. Animals are tested daily until they reach a performance criterion of 85% correct responses during a daily session. When this criterion is reached, animals receive no further testing for the next 7 days. On day 8 post-criterion, animals are tested again using the same pairs of stimuli that they have seen previously learned in order to assess long term retrieval of the learned discriminations.
as §2, §3
The percent correct responses on the total number of daily trials were recorded as well as the number of days needed to reach the criterion (at least 85% correct responses in a single test session). The percent correct responses on the retention trial was recorded for the entire retention trial session and sub-analyzed for performance differences on trials 1-14 versus trials 15-28.
Data from vehicle trials were compared to data from drug trials using a one way ANOVA. Post hoc comparisons were made using the Bonferroni t-test.

[3] = system: aged rats; conditions: treatment of aged rats; cited from earlier work
[4] = 1 mg/kg p.o. daily, excluding NHP old-9 (N=5), mean±s.e.m.
[5] = 1 mg/kg p.o. daily, including NHP old-9 (N=6)
[6] = 1 mg/kg p.o. daily, entire study group including NHP old-9 (N=6)
[7] = 1 mg/kg p.o. daily, excluding non-responder NHP old-9 (N=5), mean±s.e.m.
[8] = 10 mg/kg p.o. daily, excluding NHP old-9 (N=5), mean±s.e.m.
[9] = 10 mg/kg p.o. daily, including NHP old-9 (N=6)
[10] = 10 mg/kg p.o. daily, entire study group including NHP old-9 (N=6)
[11] = 10 mg/kg p.o. daily, excluding non-responder NHP old-9 (N=5), mean±s.e.m.
[12] = 100 mg/kg p.o. daily, excluding NHP old-9 (N=5), mean±s.e.m.
[13] = 100 mg/kg p.o. daily, including NHP old-9 (N=6)
[14] = 100 mg/kg p.o. daily, entire study group including NHP old-9 (N=6)
[15] = 100 mg/kg p.o. daily, excluding non-responder NHP old-9 (N=5), mean±s.e.m.

## COc1ccc([C@H]2CNC(=O)[C@H](Cc3cccc(C)c3)C2)cc1OC1CCCC1 [HT-0712]
[1]
  behavioral or physical side effects: no noticeable behavioral or physical side effects
[2]; [4]
  RT 1-14 (retention test trials 1 to 14), mean: 80.2±6.2 % correct responses and 80.200 % correct responses
  RT 15-28 (retention test trials 15 to 28), mean: 91.6±3.4 % correct responses and 91.600 % correct responses
  retention test, mean: 85.8±4.6 % correct responses and 85.800 % correct responses
[2]; [5]
  RT 1-14 (retention test trials 1 to 14), mean: 77.500 % correct responses
  RT 15-28 (retention test trials 15 to 28), mean: 88.167 % correct responses
  retention test, mean: 82.833 % correct responses
[2]; 1 mg/kg p.o. daily
  RT overall: 89.00 % correct responses and 68.00 % correct responses (2×) and 93.00 % correct responses (2×) and 86.00 % correct responses
  RT trials 1-14: 86.00 % correct responses (2×) and 64.00 % correct responses and 93.00 % correct responses and 79.00 % correct responses and 57.00 % correct responses
  RT trials 15-28: 93.00 % correct responses (3×) and 71.00 % correct responses and 100.00 % correct responses and 79.00 % correct responses
  C value: 96.00 % correct responses and 89.00 % correct responses (2×) and 86.00 % correct responses and 93.00 % correct responses (2×)
  Days to C: 4 days and 17 days and 15 days and 3 days and 21 days and 16 days
[2]; [6]
  C value (criterion value reached), mean: 91.000 % correct responses
  day to C (days to reach criterion), mean: 12.667 days
[2]; [7]
  C value (criterion value reached), mean: 91.4±1.8 % correct responses and 91.400 % correct responses
  day to C (days to reach criterion), mean: 12.0 ± 3.6 days and 12.000 days
[2]; [8]
  RT 1-14 (retention test trials 1 to 14), mean: 71.4±3.4 % correct and 71.400 % correct
  RT 15-28 (retention test trials 15 to 28), mean: 87.2±4.8 % correct and 87.200 % correct
  retention test, mean: 79.2±3.5 % correct responses and 79.200 % correct responses
[2]; [9]
  RT 1-14 (retention test trials 1 to 14), mean: 73.833 % correct responses
  RT 15-28 (retention test trials 15 to 28), mean: 87.000 % correct responses
  retention test, mean: 80.333 % correct responses
[2]; 10 mg/kg p.o. daily
  RT overall: 89.00 % correct responses and 86.00 % correct responses (2×) and 75.00 % correct responses (2×) and 71.00 % correct responses
  RT trials 1-14: 79.00 % correct responses (2×) and 86.00 % correct responses and 64.00 % correct responses (2×) and 71.00 % correct responses
  RT trials 15-28: 100.00 % correct responses and 86.00 % correct responses (3×) and 71.00 % correct responses and 93.00 % correct responses
  C value: 89.00 % correct responses (2×) and 86.00 % correct responses (3×) and 100.00 % correct responses
  Days to C: 18 days and 9 days and 5 days and 12 days and 15 days and 25 days
[2]; [10]
  C value (criterion value reached), mean: 89.333 % correct responses
  day to C (days to reach criterion), mean: 14.000 days
[2]; [11]
  C value (criterion value reached), mean: 90.0±2.6 % correct responses and 90.000 % correct responses
  day to C (days to reach criterion), mean: 11.8 ± 2.3 days and 11.800 days
[2]; [12]
  RT 1-14 (retention test trials 1 to 14), mean: 58.4±4.1 % correct and 58.400 % correct
  RT 15-28 (retention test trials 15 to 28), mean: 71.4±6.1 % correct and 71.400 % correct
  retention test, mean: 65.0±3.5 % correct responses and 65.000 % correct responses
[2]; [13]
  RT 1-14 (retention test trials 1 to 14), mean: 59.333 % correct responses
  RT 15-28 (retention test trials 15 to 28), mean: 72.667 % correct responses
  retention test, mean: 66.000 % correct responses
[2]; 100 mg/kg p.o. daily
  RT overall: 75.00 % correct responses and 71.00 % correct responses and 57.00 % correct responses (2×) and 68.00 % correct responses (2×)
  RT trials 1-14: 64.00 % correct responses (2×) and 50.00 % correct responses (2×) and 57.00 % correct responses and 71.00 % correct responses
  RT trials 15-28: 86.00 % correct responses (2×) and 79.00 % correct responses and 64.00 % correct responses (2×) and 57.00 % correct responses
  C value: 85.00 % correct responses and 86.00 % correct responses (4×) and 89.00 % correct responses
  Days to C: 11 days and 3 days and 10 days and 18 days and 17 days
[2]; [14]
  C value (criterion value reached), mean: 86.333 % correct responses
  day to C (days to reach criterion), mean: 10.333 days
[2]; [15]
  C value (criterion value reached), mean: 86.4±0.7 % correct responses and 86.400 % correct responses
  day to C (days to reach criterion), mean: 9.0 ± 2.8 days and 9.000 days
[2]; 1, 10, 100 mg/kg p.o., six aged macaques
  animals with improved memory performance (decrease in the number of days needed to reach criterion): Five of the six
[2]; each dose (1, 10, 100 mg/kg p.o.), Bonferroni t-test, p<0.050, old-9 excluded
  days to criterion versus vehicle: significant decrease
[2]; summary of study
  learning ability and long term memory of normal aged non-human primates: significantly improves

## COc1ccc(C2CNC(=O)C2)cc1OC1CCCC1 (centres unmarked) [rolipram]
[3]
  age-dependent loss of hippocampal-dependent memory and cellular long-term potentiation: ameliorates
